Measured values from the supplement of paper PMC9663587.

What was measured:
Experiment in all cases: area over the GR curve, 72 h; higher = more effect;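 also: Dye Drop or Deep Dye Drop imaging of viable cells in 384-well plates (Hoechst nuclei, LIVE/DEAD dye), nine half-log doses, GR normalized to DMSO controls and time-zero plates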
T47D = test system: T47D
BT474 = test system: BT474
SUM149 = test system: SUM149
ZR7530 = test system: ZR7530
PDXHCI002 = test system: PDXHCI002
MDAMB415 = test system: MDAMB415
AU565 = test system: AU565
MDAMB468 = test system: MDAMB468
MDAMB361 = test system: MDAMB361
MCF12A = test system: MCF12A
SUM52PE = test system: SUM52PE
MCF10A = test system: MCF10A
SUM190PT = test system: SUM190PT

Row | Compound | area over the GR curve (T47D) [GR] | area over the GR curve (BT474) [GR] | area over the GR curve (SUM149) [GR] | area over the GR curve (ZR7530) [GR] | area over the GR curve (PDXHCI002) [GR] | area over the GR curve (MDAMB415) [GR] | area over the GR curve (AU565) [GR] | area over the GR curve (MDAMB468) [GR] | area over the GR curve (MDAMB361) [GR] | area over the GR curve (MCF12A) [GR] | area over the GR curve (SUM52PE) [GR] | area over the GR curve (MCF10A) [GR] | area over the GR curve (SUM190PT) [GR]
1 | CCN1CCN(Cc2ccc(Nc3ncc(F)c(-c4cc(F)c5nc(C)n(C(C)C)c5c4)n3)nc2)CC1 (max 10 µM) | 0.766 | 0.329 | 0.344 | 0.546 | 0.764 | 0.71 | 0.657 | 0.176 | 0.828 | 0.169 | 0.341 | 0.381 | 0.66
2 | CNc1nc(-c2ccc3c(N)n[nH]c3c2)cc(N2C[C@@H](C(=O)NC3CCCCC3)CC[C@H]2C)n1 (max 10 µM) | 0.394 | 0.332 | 0.0419 | 0.408 | -0.0573 | 0.295 | 0.223 | 0.0821 | 0.636 | 0.0618 | 0.124 | -0.0162 | 0.292
3 | CO[C@@H](C)Cn1c(=O)n(C)c2cnc3ccc(-c4cncc(C(C)(C)O)c4)cc3c21 (max 10 µM) | 0.894 | 1.15 | 0.286 | 0.726 | 0.228 | 0.922 | 0.793 | 0.669 | 1.47 | 0.476 | 0.75 | 0.447 | 1.16
4 | Cc1nn(C)c(COc2ccc(N3CCN(S(=O)(=O)N(C)C)CC3)cc2)c1-c1cccc2c(CCCOc3cccc4ccccc34)c(C(=O)O)n(CCN3CCOCC3)c12 (max 10 µM) | 0.0143 | -0.0275 | 0.0361 | 0.0093 | -0.05 | 0.0101 | -0.0201 | 0.0206 | -0.0172 | -0.0165 | 0.0586 | 0.0018 | -0.063
5 | CN(C)CC[C@H](CSc1ccccc1)Nc1ccc(S(=O)(=O)NC(=O)c2ccc(N3CCN(Cc4ccccc4-c4ccc(Cl)cc4)CC3)cc2)cc1[N+](=O)[O-] [ABT-737] (max 10 µM) | -0.0166 | -0.0268 | 0.142 | -0.0351 | 0.0548 | 0.0607 | 0.0543 | 0.086 | -0.0339 | 0.0052 | 0.0757 | 0.0104 | 0.492
6 | C=CCn1c(=O)c2cnc(Nc3ccc(N4CCN(C)CC4)cc3)nc2n1-c1cccc(C(C)(C)O)n1 [AZD1775] (max 10 µM) | 0.113 | 0.387 | 0.614 | 0.322 | 0.483 | 0.28 | 0.496 | 0.47 | 0.897 | 0.255 | 0.158 | 0.0857 | 0.615
7 | CNC(=O)c1cccc(-c2ccc3c(N4CCOC[C@@H]4C)nc(N4CCOC[C@@H]4C)nc3n2)c1 [AZD2014] (max 10 µM) | 0.959 | 1.01 | 0.385 | 0.749 | 0.0467 | 0.762 | 0.757 | 0.401 | 1.2 | 0.529 | 0.682 | 0.4 | 0.844
8 | NC1(C(=O)N[C@@H](CCO)c2ccc(Cl)cc2)CCN(c2nc[nH]c3nccc2-3)CC1 [AZD5363] (max 10 µM) | 0.623 | 0.568 | 0.109 | 0.393 | -0.085 | 0.855 | 0.205 | 0.135 | 0.367 | 0.142 | 0.196 | 0.0283 | 0.272
